Test results: patent US9176114B2, “Cell culture model for acquired chemoresistance of chronic myelogenous leukemia and related methods for identifying agents to overcome resistance” (CITY OF HOPE, priority 2007, dated 2015)
Where a name gives a salt, the structure may show the parent alone.

Assays:
KCL-22 cells [1] = test: Resistance assay: relapse of KCL-22 cells in prolonged liquid culture (CML acquired resistance model); type: cell-based, human; conditions: for relapse of KCL-22 cells on imatinib (STI-571) in combination with the inhibitor: prolonged culture
Text: Cells were maintained in these cultures without changing medium.
Cells were maintained in these cultures without changing medium. Aliquots of cells were taken out at specified time points and cell numbers counted using a hematocytometer. Cell viability was accessed by trypan blue exclusion where necessary.

K562 cells = test: Growth factor-induced transient resistance (serum-free medium, basic supplements, insulin); type: cell-based, human; conditions: 1 μM STI-571, two days pre-incubation in SF medium with basic supplements
Description: (A) Growth curves of K562 cells in serum medium, and serum-free medium supplied with basic supplements containing 5 μg/ml insulin and 5 μg/ml transferrin (basic) with or without 75 ng/ml EGF, 25 μg/ml HDL or both (EH). […] Relative survival of imatinib treated cells was calculated by comparison to no drug treatment. Pre-incubation for two days renders resistance. […] Since sirtinol is insoluble in SF medium, HDL 25 μg/ml was added to help dissolve the drug. (D) Effects of basic supplements in serum medium. […] Viable cells were counted one and three days after the treatment. […] (F) Effects of insulin in resistance.
Whether serum-free medium supplied with select growth factors provides a better culture environment for developing CML chemoresistance was determined. Serum-free (SF) medium with insulin, transferring, epidermal growth factor (EGF) and high density lipoprotein (HDL) was used. SF medium with the basic supplements (5 μg/ml insulin and 5 μg/ml transferring) was sufficient to support growth of both K562 cells (FIG. 13A) and KCL-22 cells. […] Sirtinol is able to overcome CML resistance in SF culture.
Transient resistance conferred by insulin and transferrin supplement is of interest as insulin receptor is overexpressed in about 90% primary CML cells. The key insulin downstream target phosphatidylinositol-3 kinase (PI3K) is required for BCR-ABL mediated transformation and inhibition of PI3K-Akt-mTor pathway has been explored to overcome CML chemoresistance. SIRT1 is a key gene for regulating insulin secretion and directly regulates Akt downstream target FOXO proteins through deacetylation. Therefore, the effect of insulin itself for transient resistance to imatinib and the response of sirtinol treatment were examined.

SIRT1 = SIRT1 protein expression by Western blot; type: cell-based, human
Description: (§1) SIRT1 expression was analyzed by Western blot using 1:5000 diluted rabbit monoclonal SIRT1 antibody (Epitomics). Controls used were GAPDH or actin as loading controls with rabbit anti-GAPDH (Trevigen) or anti-actin (Sigma) at 1:5000 dilution. GAPDH [>ref|NT—009759.15|Hs12—9916:6497433-6502281 Homo sapiens chromosome 12 genomic contig, reference assembly] primers used are as follows: […]
RNA was extracted with Trizol (Invitrogen), synthesized the first strand DNA with Superscript III kit (Invitrogen), and analyzed gene expression using SYBR GreenER qPCR SuperMix kit (Invitrogen). For Western blots, rabbit monoclonal anti-human SIRT1 (Epitomics), rabbit anti-mouse SIRT1 (Upstate Biotech), mouse monoclonal anti-c-ABL (BD Pharmingen), mouse monoclonal anti-Ku70 (Neomarker), rabbit polyclonal anti-acetylated p53 (Cell Signaling) and rabbit polyclonal anti-acetylated FOXO1 (Santa Cruz Biotech) were used. To analyze Ku70 acetylation, Ku70 was pulled down from total cell lysate with anti-Ku70 and protein A-agarose beads (Upstate Biotech) followed by acetylation detection with rabbit anti-acetyl lysine antibody (Cell Signaling).

SIRT1 promoter = SIRT1 promoter assay (luciferase reporter); type: cell-based, human; conditions: KCL-22 and K562 cells
Description: FeOfection reagent (GENOVIS) was used to transfect 0.18 μg reporter and 0.02 μg pmaxGFP each well per the manufacturer's instruction. Six hours after transfection, cells were treated with imatinib and harvested after another 30 hs. Luciferase activity was measured using Dual-Luciferase Assay System (Promega), and normalized to GFP reading in each lysate.

CML mice [2] = conditions: P210 BCR-ABL BALB/c model; cited from earlier work
KU-812 xenograft = conditions: relapse after 48 to 60 days; cited from earlier work
KCL-22 cells [3] = test: Analysis of reactive oxygen species (ROS) and DNA damage (γH2AX); type: cell-based, human; conditions: 24 h, in the presence or absence of imatinib
Description: ROS was analyzed using redox-sensitive fluorochrome 2′.7′-dichlorofluorescein diacetate (Sigma) as described previously (Koptyra et al. 2006). When coupled with the apoptosis analysis, cells were labeled with annexin V first and then 2′.7′-dichlorofluorescein diacetate.
Cells were pre-selected for four days in HAT medium to remove pre-existing HPRT mutations. The efficiency of HAT selection was confirmed by plating these cells on soft agar with 2.5 μg/ml 6-thioguanine, which produced zero colony. HAT-selected cells were then treated with 0.5 μM CPT for 1 hour, and then cultured for 10 days before used for soft agar clonogenic assay with 6-thioguanine selection. The rest of HAT-selected cells were cultured in medium without selection. The change of γH2AX was analyzed with γH2AX Assay Kit (Upstate Biotech).

HIC1 = HIC1 expression / SIRT1 level after HDAC and DNMT inhibitors; type: cell-based, human; conditions: KCL-22 cells, alone or in combination
Text: Total cellular RNA with Trizol (Invitrogen) using a standard protocol. First strand DNA was synthesized and HIC1 expression by quantitative real-time RT-PCR using a kit with SYBR Green label (Invitrogen) as per the manufacture's instruction on a BioRad machine OPTICON. The following are the HIC1 primers (spanning introns), 5′-[…]-3′(exon 1a) and 5′-[…]-3′ (Exon 2). [>ref|NT—010718.15|Hs17—10875:1561637-1565694 Homo sapiens chromosome 17 genomic contig, reference assembly]
as §1

KCL-22M cells = conditions: 1 μM inhibitor
Description: Cell cycle was analyzed by fixing cells with 70% ethanol at −20° C. overnight. After washing, cells were resuspended in phosphate-buffered saline containing 1 mg/ml RNase A, incubated for 30 min at 37° C., and then stained with propidine iodine (50 μg/ml) for 30 min at room temperature before flow cytometry analysis. Cell proliferation was analyzed using a XTT Cell Proliferation kit (Roche Applied Science), and apoptosis was analyzed with annexin V kit (BD Pharmingen) as per the manufacturer's instruction.

[4] = test system: SIRT1 and other sirtuin deacetylases; conditions: cited from earlier work
[5] = Physiological indexes of normal BALB/c mice after 10 day treatment; type: in vivo; conditions: tenovin-6 alone or in combination with imatinib
CML CD34+ cells = test: Apoptosis and p53 acetylation in primary CML CD34+ cells; type: cell-based, human
Text: FIG. 32 illustrates that SIRT1 inhibition enhances apoptosis of human CML progenitor cells. (A) Inhibition of SIRT1 protein expression in CML and cord blood (CB) CD34+ cells by lentivirus-mediated expression of SIRT1 shRNA. […] (C) SIRT1 inhibition in CML CD34+ cells results in increased P53 acetylation. […] (F) SIRT1 expression in CB and AML CD34+ cells.

AML CD34+ cells = test: Apoptosis of AML CD34+ cells; type: cell-based, human
Solubility = type: physicochemical
CML mice [6] = test: Mouse bone marrow transduction/transplantation model of CML-like disease, drug treatment
[7] = 1 μM TSA with all dosages of STI-571

Structure (SMILES): Cc1ccc(NC(=O)c2ccc(CN3CCN(C)CC3)cc2)cc1Nc1nccc(-c2cccnc2)n1 [STI-571, Imatinib mesylate]
- sensitivity of KCL-22 cells to treatment (KCL-22 cells [1]; 1 μM STI-571): insensitive
- sensitivity of K562 cells to STI-571 in SF medium (K562 cells): as refractory as KCL-22 cells
- SIRT1 expression (SIRT1; KCL-22M cells): did not change SIRT1 expression
- SIRT1 protein levels (SIRT1; KCL-22 and K562 cells, imatinib 48 hours): decreased in a drug concentration-dependent manner
- SIRT1 promoter activity (SIRT1 promoter): significantly inhibited SIRT1 promoter activity
- mice with prolonged survival on STI-571 (CML mice [2]): 80%
- fraction of mice relapsing on STI-571 (KU-812 xenograft): one third

Structure (SMILES): CC(/C=C/C(=O)NO)=C\[C@@H](C)C(=O)c1ccc(N(C)C)cc1 [TSA, trichostatin A]
- cell killing in combination with STI-571 (KCL-22 cells [1]; [7]): massive apoptosis and dramatic cell killing
- relapse on TSA plus STI-571 (KCL-22 cells [1]; [7]): After ten days, cells on all dosages of STI-571 relapsed
- toxicity on KCL-22 cells, inhibitor alone (KCL-22 cells [1]; TSA at 1 μM alone): little toxicity
- relapse of KCL-22 cells on imatinib (STI-571) in combination with the inhibitor (KCL-22 cells [1]): fails to block relapse
- γH2AX expression (KCL-22 cells [3]): elicited robust γH2AX induction
- reactivation of HIC1 expression / reduction of SIRT1 level (HIC1): could not reactivate HIC1 expression or reduce SIRT1 level
- growth of KCL-22M cells (KCL-22M cells): no effect on cell growth
- sensitivity of SIRT1 to the inhibitor [4]: insensitive

Structure (SMILES): CN(C)CCCCC(=O)Nc1ccc(NC(=S)NC(=O)c2ccc(C(C)(C)C)cc2)cc1 [tenovin-6]
- lowest dose that blocked relapse on imatinib (KCL-22 cells [1]): 1 µM
- recurrence on nilotinib or dasatinib in combination with SIRT1 inhibitor (KCL-22 cells [1]): effectively blocked the recurrence
- relapse on […] Nilotinib in combination with SIRT1 inhibitor (KCL-22 cells [1]): blocked relapse
- relapse on 1 μM Dasatinib in combination with tenovin-6 (KCL-22 cells [1]; 1 μM tenovin-6): delayed the relapse
- relapse on 1 μM Dasatinib in combination with tenovin-6 (KCL-22 cells [1]; 5 μM tenovin-6): blocked relapse
- relapse of KCL-22 cells on imatinib (STI-571) in combination with the inhibitor (KCL-22 cells [1]): blocks relapse
- toxicity [5]: No noticeable toxicity
- P53 acetylation in CML CD34+ cells (CML CD34+ cells): enhanced P53 acetylation
- apoptosis of primitive CML CD34+CD38- progenitors incl. quiescent fraction (CML CD34+ cells): increased apoptosis
- apoptosis of AML CD34+ cells (AML CD34+ cells): induced apoptosis
- water solubility (Solubility): water soluble
- CML mouse survival (CML mice [6]; 50 mg/kg/day, 10 days from day 10 after transplantation): significantly extended CML mouse survival
- CML mouse survival, combination (CML mice [6]; tenovin-6 with imatinib): longest survivors
